The values that follow are results of earlier work, collected in patent US20090099301A1, “MOLECULAR IMPRINTINGS FOR RECOGNITION IN AQUEOUS MEDIA, METHODS FOR PREPARING SAME AND USES THEREOF” (POLYINTELL, priority 2006, published 2009).

For this series the following is noted: basic medium (pH 11).

`CC(C)NCC(O)COc1cccc2ccccc12` (stereo not shown) [propranolol]: the solubility in water result is listed as “insoluble”.
